Measured values reported in ChEMBL document CHEMBL4340566, “Development of indazole mineralocorticoid receptor antagonists and investigation into their selective late-stage functionalization” (Bioorg Med Chem Lett, 2019).
Each block holds one compound with its values, some of them ahead of it.

Experiments:
[1] = target: T1, Mineralocorticoid receptor (Homo sapiens, UniProt P08235); test: Antagonist activity at mineralocorticoid receptor (unknown origin)
T1 sequence (P08235 whole entry): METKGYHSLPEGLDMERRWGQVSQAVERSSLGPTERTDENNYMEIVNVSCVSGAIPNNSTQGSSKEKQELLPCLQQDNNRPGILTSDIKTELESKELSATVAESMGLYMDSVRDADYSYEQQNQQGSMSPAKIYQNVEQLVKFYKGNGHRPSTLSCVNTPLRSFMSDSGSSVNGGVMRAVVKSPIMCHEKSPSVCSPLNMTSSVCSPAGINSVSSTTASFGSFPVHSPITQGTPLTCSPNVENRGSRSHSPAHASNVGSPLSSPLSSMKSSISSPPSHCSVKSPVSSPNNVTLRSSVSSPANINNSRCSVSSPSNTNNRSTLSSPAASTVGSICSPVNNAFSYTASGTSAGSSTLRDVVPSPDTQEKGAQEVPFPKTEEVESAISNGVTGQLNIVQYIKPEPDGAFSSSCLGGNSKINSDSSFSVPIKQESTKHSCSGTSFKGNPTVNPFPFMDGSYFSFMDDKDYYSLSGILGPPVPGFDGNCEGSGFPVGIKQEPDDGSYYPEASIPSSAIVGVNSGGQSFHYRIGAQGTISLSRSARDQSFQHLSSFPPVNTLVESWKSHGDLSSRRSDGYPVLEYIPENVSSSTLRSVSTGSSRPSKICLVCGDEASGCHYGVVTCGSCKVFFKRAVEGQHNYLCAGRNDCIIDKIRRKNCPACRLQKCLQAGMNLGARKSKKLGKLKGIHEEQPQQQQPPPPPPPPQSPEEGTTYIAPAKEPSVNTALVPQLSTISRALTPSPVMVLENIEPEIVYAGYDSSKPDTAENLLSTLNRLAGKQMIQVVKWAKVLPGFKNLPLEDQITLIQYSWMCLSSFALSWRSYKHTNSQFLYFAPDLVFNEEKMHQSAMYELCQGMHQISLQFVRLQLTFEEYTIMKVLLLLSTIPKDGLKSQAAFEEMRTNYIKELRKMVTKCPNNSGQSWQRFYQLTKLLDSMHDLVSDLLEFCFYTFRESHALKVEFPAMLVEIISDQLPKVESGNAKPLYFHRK

[2] = target: T1, Mineralocorticoid receptor; test: Binding affinity to mineralocorticoid receptor (unknown origin)
[3] = Clearance in Wistar Han rat at 2 mg/kg, iv or 10 mg/kg, po; assay type: ADME, organism-based; details: in vivo
[4] = Half-life in Wistar Han rat at 2 mg/kg, iv or 10 mg/kg, po; assay type: ADME, organism-based; details: in vivo
[5] = Oral bioavailability in Wistar Han rat at 10 mg/kg; assay type: ADME, organism-based; details: in vivo
Homo sapiens = species on record: Homo sapiens; test: Selectivity ratio of IC50 for glucocorticoid receptor (unknown origin) to IC50 for mineralocorticoid receptor (unknown origin)
Glucocorticoid receptor = target: T2, Glucocorticoid receptor (Homo sapiens, UniProt P04150); test: Binding affinity to glucocorticoid receptor (unknown origin) by gel filtration assay
T2 sequence (P04150 whole entry): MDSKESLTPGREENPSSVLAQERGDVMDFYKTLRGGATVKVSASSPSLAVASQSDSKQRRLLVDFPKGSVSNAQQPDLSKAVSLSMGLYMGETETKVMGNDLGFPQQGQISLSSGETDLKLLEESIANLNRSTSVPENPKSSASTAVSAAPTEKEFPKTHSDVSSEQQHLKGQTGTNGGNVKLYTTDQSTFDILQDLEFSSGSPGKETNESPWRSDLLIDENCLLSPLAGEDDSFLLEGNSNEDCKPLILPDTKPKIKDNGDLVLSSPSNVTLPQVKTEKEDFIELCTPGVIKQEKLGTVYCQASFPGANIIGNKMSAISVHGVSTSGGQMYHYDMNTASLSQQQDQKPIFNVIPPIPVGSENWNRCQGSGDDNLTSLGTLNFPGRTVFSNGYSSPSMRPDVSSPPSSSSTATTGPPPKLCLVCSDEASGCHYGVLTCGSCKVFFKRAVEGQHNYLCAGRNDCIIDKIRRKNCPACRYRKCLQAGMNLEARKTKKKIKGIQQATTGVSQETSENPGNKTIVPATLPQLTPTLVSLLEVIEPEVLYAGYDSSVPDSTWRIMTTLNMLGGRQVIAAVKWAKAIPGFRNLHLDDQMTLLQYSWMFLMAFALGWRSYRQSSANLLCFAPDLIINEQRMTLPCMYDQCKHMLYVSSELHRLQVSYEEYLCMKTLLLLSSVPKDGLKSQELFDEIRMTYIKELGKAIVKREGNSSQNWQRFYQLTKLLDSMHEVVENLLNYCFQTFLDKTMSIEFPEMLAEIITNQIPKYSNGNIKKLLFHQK

[6] = Clearance in Wistar Han rat at 1 mg/kg, iv or 2 mg/kg, po; assay type: ADME, organism-based; details: in vivo
[7] = Half-life in Wistar Han rat at 1 mg/kg, iv or 2 mg/kg, po; assay type: ADME, organism-based; details: in vivo; for half-life: Wistar Han
[8] = Oral bioavailability in Wistar Han rat at 2 mg/kg; assay type: ADME, organism-based; details: in vivo
[9] = Clearance in Sprague-Dawley rat at 1 mg/kg, iv or 2 mg/kg, po; assay type: ADME, organism-based; details: in vivo
[10] = Half-life in Sprague-Dawley rat at 1 mg/kg, iv or 2 mg/kg, po; assay type: ADME, organism-based; details: in vivo
[11] = Oral bioavailability in Sprague-Dawley rat at 2 mg/kg; assay type: ADME, organism-based; details: in vivo
[12] = Metabolic stability in human liver microsomes assessed as parent compound remaining measured at 0.5 hrs; assay type: ADME, Microsome; details: read-out: Stability
[13] = Drug metabolism in human liver microsomes assessed as oxidation of electron-rich indole core at 10 uM preincubated for 1 hr followed by NADPH addition by HRMS/MS fragmentation analysis; assay type: ADME, Microsome
[14] = Drug metabolism in rat liver microsomes assessed as oxidation of electron-rich indole core at 10 uM preincubated for 1 hr followed by NADPH addition by HRMS/MS fragmentation analysis; assay type: ADME, Microsome
[15] = Photostability of the compound under UV-irradiation; assay type: physicochemical
[16] = Clearance in Sprague-Dawley rat at 2 mg/kg, iv or 10 mg/kg, po; assay type: ADME, organism-based; details: in vivo
[17] = Half-life in Sprague-Dawley rat at 2 mg/kg, iv or 10 mg/kg, po; assay type: ADME, organism-based; details: in vivo
[18] = Oral bioavailability in Sprague-Dawley rat at 10 mg/kg; assay type: ADME, organism-based; details: in vivo

Compound: CC[C@](CO)(c1ccc(Cl)cc1)n1ccc2c(NS(C)(=O)=O)cc(F)cc21
- IC50 [1]: 116 nM
- IC50 [2]: 32 nM
- clearance [3]: 34 mL/min/kg
- half-life [4]: 96 min
- bioavailability [5]: 30%
- Ratio IC50 (Homo sapiens): 3.5
- IC50 (Glucocorticoid receptor): 111 nM

Compound: CCC(CC)(c1ccc(Cl)cc1)c1cnc2c(NS(C)(=O)=O)cccn12
- IC50 [1]: 7690 nM

Compound: CC[C@](CO)(c1ccc(Cl)cc1)n1ccc2c(NS(C)(=O)=O)cccc21
- clearance [6]: 41 mL/min/kg
- half-life [7]: 90 min

Compound: CC[C@@](c1ccc(C(F)(F)F)cc1)(C(C)O)n1ncc2c(NS(C)(=O)=O)cc(F)cc21 (single isomer, unassigned; diastereomer B) [listing 1 of 2 here]
- Ratio IC50 (Homo sapiens): 19

Compound: CCC(CO)(c1ccc(Cl)cc1)n1ccc2c(NS(C)(=O)=O)cc(Br)cc21 (racemic)
- IC50 [1]: 567 nM
- IC50 (Glucocorticoid receptor): 202 nM

Compound: CC[C@](C(=O)NC)(c1ccc(Cl)cc1)n1ccc2c(NS(C)(=O)=O)cccc21
- Drug metabolism [13]: Metabolite_Detected
- Drug metabolism [14]: Metabolite_Detected
- Stability [15]: Unstable

Compound: CCC(CC)(c1ccc(Cl)cc1)c1nnc2c(NS(C)(=O)=O)cccn12
- IC50 [1]: 5940 nM

Compound: CCC(CO)(c1ccc(Cl)cc1)n1ccc2c(NS(C)(=O)=O)cc(C#N)cc21 (racemic)
- IC50 [1]: 22000 nM
- IC50 (Glucocorticoid receptor): 1050 nM

Compound: CC[C@@](c1ccc(C(F)(F)F)cc1)(C(C)O)n1ncc2c(NS(C)(=O)=O)cc(F)cc21 (single isomer, unassigned; diastereomer A) [listing 2 of 2 here]
- Ratio IC50 (Homo sapiens): 640

Next, values leading:

- IC50 [1]: 114 nM
Compound: CCC(CC)(c1ccc(Cl)cc1)n1ncc2c(NS(C)(=O)=O)cccc21

- IC50 [1]: 39 nM
Compound: CCC(CC)(c1ccc(Cl)cc1)n1ccc2c(NS(C)(=O)=O)cccc21

- clearance [6]: 14 mL/min/kg
- IC50 [1]: 20 nM
- half-life [7]: 342 min
- bioavailability ([8]; Wistar Han): 92%
- Ratio IC50 (Homo sapiens): 1000
- clearance [9]: 14 mL/min/kg
- half-life [10]: 342 min
- bioavailability [11]: 92%
- remaining at 0.5 h [12]: 52%
- IC50 (Glucocorticoid receptor): 1640 nM
Compound: CC[C@@](c1ccc(C(F)(F)F)cc1)(C(C)O)n1ncc2c(NS(C)(=O)=O)cccc21 (some centres not stated)

- IC50 [1]: 22 nM
- t1/2 [7]: 1.8 h
- F [8]: 36%
- IC50 (Glucocorticoid receptor): 10200 nM
Compound: CC[C@@](c1ccc(C(F)(F)F)cc1)(C(C)O)n1ncc2c(NS(C)(=O)=O)cc(F)cc21 (single isomer, unassigned; diastereomer A) [listing 1 of 2 here]

- IC50 [1]: 64 nM
- Ratio IC50 (Homo sapiens): 29
- clearance [16]: 27 mL/min/kg
- half-life [17]: 114 min
- bioavailability [18]: 59%
- IC50 (Glucocorticoid receptor): 870 nM
Compound: CC[C@](CO)(c1ccc(Cl)cc1)n1ncc2c(NS(C)(=O)=O)cccc21

- IC50 [1]: 41 nM
- t1/2 [7]: 5.2 h
- F [8]: 92%
- remaining at 0.5 h [12]: 84%
- IC50 (Glucocorticoid receptor): 4020 nM
Compound: CC[C@@](c1ccc(C(F)(F)F)cc1)(C(C)O)n1ncc2c(NS(C)(=O)=O)cc(F)cc21 (single isomer, unassigned; diastereomer B) [listing 2 of 2 here]
